Peptide text beside a SMILES is read from it.
Columns and labels:
[1] = Surface plasmon resonance on chip-supported Gram-positive model membrane; assay type: binding; conditions: highest N-104 concentration, PC:PG Gram-positive model membrane
PA14 transcriptome = experiment: RNAseq of N-104 treated PA14; assay type: cell-based, Pseudomonas aeruginosa; conditions: 20 μM N-104 versus N-80/C-25, 45 min at 35 °C, 5 × 10^8 cfu/ml
Method: For RNA extraction and sequencing of P. aeruginosa, we used diethylpyrocarbonate (DEPC) treated Eppendorf tubes (except for those used for synthetic peptide incubation). An aliquot of PA14 overnight culture grown for 3.5 to 4.0 h in LB broth to OD600 = 0.5 (5.0 × 10^8 cells) was gently pelleted (12,000g, 30 s), resuspended in 0.5 ml of 1 mM Na2HPO4, 0.18 mM KH2PO4, 0.27 mM KCl, 13.7 mM NaCl (pH 7.2) and incubated with five or 20 μM N-104, or 20 μM N-80/C-25 for 45 min at 35 °C or left untreated. After pelleting (12,000g, 5 min), cells were resuspended in 0.5 ml of TE buffer supplemented with 1 ml of RNA-protect Bacteria Reagent with 5 s of vortexing prior to incubation for 5 min at room temperature, pelleting (5000g, 10 min), and lysis initiated in 200 μl of 15 mg/ml lysozyme together with 20 μl of 2.5 mg/ml proteinase K, both in TE buffer. […] Library construction and sequencing were performed by UVA's Genome Analysis and Technology Core involving mRNA enrichment via the NEBNext rRNA Depletion Kit (Bacteria), and transcriptome sequencing on a Next Seq 500 Mid Output platform, with 150-bp paired-end reads. The range of raw reads for each sample varied from 8 to 10 million, thus ensuring an optimal depth of sequencing that was analyzed by UVA's Bioinformatics Core facility.

thrombin (F2) = thrombin (F2) (Homo sapiens, UniProt P00734); experiment: Affinity pulldown of human tears on peptide columns; assay type: binding; conditions: pooled human basal tears, 300 mOsm/l, 0.5 M KCl eluant, anti-F2 immunodetection
Method: Studies in this work abide by the Declaration of Helsinki principles. As per UVA IRB protocol 18,592, consented normal human volunteers were subjected to 0.5% proparacaine anesthesia of the eye to minimize reflex tearing. Human basal tears were then wicked for 5 min onto filter paper-like Schirmer strips. Those that had wicked a distance of at least 12 mm were subjected to 4 °C elution with 10 mM Na2HPO4, 1.8 mM KH2PO4, 2.7 mM KCl, 137 mM NaCl (pH 7.2) for a final total pooled tear volume of 170 μl. The pool was diluted five-fold in 10 mM Na2HPO4, 1.8 mM KH2PO4, 2.7 mM KCl, and 137 mM NaCl (pH 7.2) with protease inhibitors and subjected to end-over-end mixing with a 100 μl precolumn of Pierce Agarose followed by equal division by protein concentration into each of 100 μl of N-104 or C-95 columns. The solution was mixed for 5 h at 4 °C. Columns were subjected to washing with 10 mM Na2HPO4, 1.8 mM KH2PO4, 2.7 mM KCl, and 137 mM NaCl (pH 7.2) containing the same protease inhibitors followed by elution using KCl (0.3, 0.5, and 1.0 M KCl) in the same buffer. The 0.5 M KCl eluate was submitted for mass spectrometric sequencing by UVA's Biomolecular Analysis Facility, as previously noted. The acquired data were analyzed by database searching using the Sequest search algorithm against UniProt H. sapiens. […]

P. aeruginosa PA14 = experiment: N-104 sub-MIC generational resistance assay; assay type: cell-based, Pseudomonas aeruginosa; conditions: PA14 treated at subminimal inhibitory and minimal inhibitory concentrations, n = 2
Method: Supplementary Fig. 2. Thirty generations of PA14 fail to develop stable N-104 resistance together with biological replicates related to Fig. 2. A, Schematic of the N-104 sub-minimal inhibitory concentration (‘sub-MIC’) N-104 resistant assay. […] . This process was repeated through 30 generations. B, Generational fold change of N-104 MIC over 30 generations. The original sub-MIC N-104 concentration was 2 µM, for which there was no initial sub-MIC change ([mean], n = 2, *p<0.05; ns, not significant [Friedman ANOVA with Dunn's multiple comparisons test]). C, Biological replicates of the N-104 sub-MIC resistant assay. Scale bar is 2 mm. […] Scale bar is 2 mm.

CC(=O)N[C@@H](C)C(=O)N[C@@H](CCC(N)=O)C(=O)N[C@@H](CCCCN)C(=O)N[C@@H](CC(C)C)C(=O)N[C@@H](CC(C)C)C(=O)N[C@@H](CCCCN)C(=O)N[C@@H](CCCCN)C(=O)N[C@@H](Cc1ccccc1)C(=O)N[C@@H](CO)C(=O)N[C@@H](CC(C)C)C(=O)N[C@@H](CC(C)C)C(=O)N[C@@H](CCCCN)C(=O)N1CCC[C@H]1C(=O)N[C@@H](Cc1c[nH]c2ccccc12)C(=O)N[C@@H](C)C(=O)O [N-104] (Ac-AQKLLKKFSLLKPWA-OH)
SPR response after buffer wash versus baseline [1]: slightly below baseline
effect on PA14 respiratory gene expression (PA14 transcriptome): promotes the expression of genes regulating anaerobic respiration while largely suppressing those involved in aerobic respiration
binding of tear thrombin to immobilized peptide (thrombin (F2)): binds thrombin
development of resistance over 30 successive generations (P. aeruginosa PA14): No stable resistance was apparent
